Assay results reported in PubChem BioAssay (NCI).
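Exposure lasted 48 hours, with cells grown in 96-well plates and compounds tested at five concentrations. The concentration for 50% growth inhibition is given as GI50. TGI marks complete inhibition of growth.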 Calls of active or inactive are those of the source. No stated cut-off is given here; in the data, active means GI50 below about 0.43 µM; inactive means the rest.

Assays:
Experiment in all cases: inhibition of tumour cell growth, NCI panel, 48 h
HOP-92 NSCLC = tested on: HOP-92 NSCLC
HCT-15 colon = tested on: HCT-15 colon
LOX IMVI melanoma = tested on: LOX IMVI melanoma
NCI-H460 lung = tested on: NCI-H460 lung
TK-10 renal = tested on: TK-10 renal
HT29 colon = tested on: HT29 colon
OVCAR-5 ovarian = tested on: OVCAR-5 ovarian
SK-MEL-28 melanoma = tested on: SK-MEL-28 melanoma
DMS 114 small cell lung = tested on: DMS 114 small cell lung
SK-MEL-2 melanoma = tested on: SK-MEL-2 melanoma
MDA-MB-435 = tested on: MDA-MB-435
ACHN renal = tested on: ACHN renal
HOP-62 NSCLC = tested on: HOP-62 NSCLC
HCT-116 colon = tested on: HCT-116 colon
IGROV1 ovarian = tested on: IGROV1 ovarian
OVCAR-8 ovarian = tested on: OVCAR-8 ovarian
RXF-631 renal = tested on: RXF-631 renal
XF 498 CNS = tested on: XF 498 CNS

With `C=CC(=O)C#CC#CC/C=C\CCCCCCC` the TGI (HOP-92 NSCLC) was > 20.6 µM, the TGI (HCT-15 colon) was > 20.6 µM and the outcome (HCT-15 colon) was “inactive”. For the same molecule, the TGI (LOX IMVI melanoma) was > 20.6 µM, the outcome (LOX IMVI melanoma) was “inactive” and the TGI (NCI-H460 lung) was > 20.6 µM. The outcome (NCI-H460 lung) was “inactive”, the TGI (TK-10 renal) was > 20.6 µM and the outcome (TK-10 renal) was “inactive”. For the same molecule, the TGI (HT29 colon) was > 20.6 µM, the outcome (HT29 colon) was “inactive” and the TGI (OVCAR-5 ovarian) was > 20.6 µM. The outcome (OVCAR-5 ovarian) was “inactive”, the TGI (SK-MEL-28 melanoma) was > 20.6 µM and the outcome (SK-MEL-28 melanoma) was “inactive”. For the same molecule, the TGI (DMS 114 small cell lung) was > 20.6 µM, the TGI (SK-MEL-2 melanoma) was > 20.6 µM and the outcome (SK-MEL-2 melanoma) was “inactive”. For the same molecule, the TGI (MDA-MB-435) was > 20.6 µM, the outcome (MDA-MB-435) was “inactive” and the TGI (ACHN renal) was > 20.6 µM. For the same molecule, the outcome (ACHN renal) was “inactive”, the TGI (HOP-62 NSCLC) was > 20.6 µM and the outcome (HOP-62 NSCLC) was “inactive”. For the same molecule, the TGI (HCT-116 colon) was > 20.6 µM, the outcome (HCT-116 colon) was “inactive” and the TGI (IGROV1 ovarian) was > 6.51 µM. For the same molecule, the outcome (IGROV1 ovarian) was “inactive”, the TGI (OVCAR-8 ovarian) was > 20.6 µM and the outcome (OVCAR-8 ovarian) was “inactive”.

Work on `C[CH2][Sn]([CH2]C)([O]C(=O)c1ccccc1F)[O]C(=O)c1ccccc1F` yielded a GI50 (HOP-92 NSCLC) of 18 µM, a TGI (HOP-92 NSCLC) of 37.7 µM and a GI50 (HCT-15 colon) of 29 µM. For the same molecule, the TGI (HCT-15 colon) was > 67.7 µM, the GI50 (LOX IMVI melanoma) was 19.2 µM and the TGI (LOX IMVI melanoma) was 40.8 µM. For the same molecule, the GI50 (NCI-H460 lung) was > 100 µM, the TGI (NCI-H460 lung) was > 100 µM and the GI50 (TK-10 renal) was 18.1 µM. For the same molecule, the TGI (TK-10 renal) was 33.4 µM, the GI50 (HT29 colon) was 59.2 µM and the TGI (HT29 colon) was > 100 µM. For the same molecule, the GI50 (OVCAR-5 ovarian) was > 97.4 µM, the TGI (OVCAR-5 ovarian) was > 100 µM and the GI50 (SK-MEL-28 melanoma) was 29.1 µM. The TGI (SK-MEL-28 melanoma) was 47.6 µM, the GI50 (DMS 114 small cell lung) was 20.4 µM and the TGI (DMS 114 small cell lung) was 43.1 µM. For the same molecule, the GI50 (RXF-631 renal) was 18.6 µM, the TGI (RXF-631 renal) was 34.1 µM and the GI50 (SK-MEL-2 melanoma) was 15.8 µM. It also gave a TGI (SK-MEL-2 melanoma) of 28.1 µM, a GI50 (XF 498 CNS) of 15.9 µM and a TGI (XF 498 CNS) of 30.6 µM. The GI50 (MDA-MB-435) was > 100 µM, the TGI (MDA-MB-435) was > 100 µM and the GI50 (ACHN renal) was 32.7 µM. For the same molecule, the TGI (ACHN renal) was 48.3 µM, the GI50 (HOP-62 NSCLC) was > 100 µM and the TGI (HOP-62 NSCLC) was > 100 µM. The GI50 (HCT-116 colon) was > 69.8 µM, the TGI (HCT-116 colon) was > 100 µM and the GI50 (IGROV1 ovarian) was > 100 µM. The TGI (IGROV1 ovarian) was > 100 µM, the GI50 (OVCAR-8 ovarian) was > 70.5 µM and the TGI (OVCAR-8 ovarian) was > 100 µM.
